Assay results: patent US12220398B2, “Tumor therapeutic agent” (Eisai R&D Management Co., Ltd., priority 2015, dated 2025)

Assays:
Type in all cases: in vivo
[1] = tested on: human osteosarcoma cell line (G-292 clone A141B1); assay: Tumor growth inhibitory activity against human osteosarcoma cell line (G-292 clone A141B1) subcutaneous transplantation models; details: G-292 clone A141B1 s.c. xenograft in NOD SCID mice, lenvatinib mesylate 3 mg/kg p.o. Day 1-7, ifosfamide 250 mg/kg i.p. Day 1, etoposide 8 mg/kg i.p. Day 2-4, control group 362.5
Experimental: Using 6 NOD SCID mice (NOD.CB17-Prkdc^scid/J, female mice, Charles River Laboratories Japan, Inc.) in each group, antitumor effects were evaluated when lenvatinib alone, a combination of two agents, i.e., ifosfamide and etoposide, or a combination of three agents, i.e., lenvatinib, ifosfamide, and etoposide, was administered. Cells of osteosarcoma cell line G-292 clone A141B1 (JCRB Cell Bank, IFO50107) derived from human were suspended at a concentration of 1×10^8 cells/mL, and 0.1 mL of the suspension was subcutaneously transplanted to the right flank of each mouse.
The longest diameter and short axis of the tumor were measured with an electronic digital caliper (Digimatic (tread mark) Caliper, Mitutoyo Corporation) 29 days after transplantation. The mice were divided into groups so that the average value of the tumor volume of each group was almost equal (Day 1). The tumor volume was calculated according to the following equation: Tumor volume=longest diameter(mm)×short axis(mm)×short axis(mm)/2
Lenvatinib mesylate was dissolved in purified water to a concentration of 0.3 mg/mL. lfosfamide (Sigma Aldrich) was dissolved in a physiological saline solution to a concentration of 25 mg/mL. […]
(§1) The tumor volume of each mouse was measured 8 days (Day 8) after the start of administration.

[2] = tested on: human osteosarcoma cell line (143B); assay: Tumor growth inhibitory activity against human osteosarcoma cell line (143B) subcutaneous transplantation models; details: 143B s.c. xenograft in NOD SCID mice, lenvatinib mesylate 3 mg/kg p.o. Day 1-7, ifosfamide 250 mg/kg i.p. Day 1, etoposide 8 mg/kg i.p. Day 2-4, control group 785.4
Experimental: Using 6 NOD SCID mice (NOD.CB17-Prkdc^scid/J, female mice, Charles River Laboratories Japan, Inc.) in each group, antitumor effects were evaluated when lenvatinib alone, a combination of two agents, i.e., ifosfamide and etoposide, or a combination of three agents, i.e., lenvatinib, ifosfamide, and etoposide, was administered. Cells of osteosarcoma cell line 143B (ATCC CRL-8303) derived from human were suspended at a concentration of 1×10^7 cells/mL, and 0.1 mL of the suspension was subcutaneously transplanted to the right flank of each mouse.
The longest diameter and short axis of the tumor were measured with an electronic digital caliper (Digimatic (tread mark) Caliper, Mitutoyo Corporation) 9 days after transplantation. The mice were divided into groups so that the average value of the tumor volume of each group was almost equal (Day 1). The tumor volume was calculated according to the following equation: Tumor volume=longest diameter(mm)×short axis(mm)×short axis(mm)/2
Lenvatinib mesylate was dissolved in purified water to a concentration of 0.3 mg/mL. Ifosfamide (Sigma Aldrich) was dissolved in a physiological saline solution to a concentration of 25 mg/mL. […]
as §1

[3] = tested on: human osteosarcoma cell line (HOS); assay: Tumor growth inhibitory activity against human osteosarcoma cell line (HOS) subcutaneous transplantation models; details: HOS s.c. xenograft in NOD SCID mice, lenvatinib mesylate 3 mg/kg p.o. Day 1-7, ifosfamide 250 mg/kg i.p. Day 1, etoposide 8 mg/kg i.p. Day 2-4, control group 468.6
Experimental: Tumor growth inhibitory activity of the combined use of lenvatinib, ifosfamide, and etoposide against human osteosarcoma cell line (HOS) subcutaneous transplantation models
Using 6 NOD SOD mice (NOD.CB17-Prkdc^scid/J, female mice, Charles River Laboratories Japan, Inc.) in each group, antitumor effects were evaluated when lenvatinib alone, a combination of two agents, i.e., ifosfamide and etoposide, or a combination of three agents, i.e., lenvatinib, ifosfamide, and etoposide, was administered. Cells of osteosarcoma cell line HOS (Human Science Research Resources Bank, IFO50106) derived from human were suspended at a concentration of 1×10^8 cells/mL, and 0.1 mL of the suspension was subcutaneously transplanted to the right of each mouse.
The longest diameter and short axis of the tumor were measured with an electronic digital caliper (Digimatic (tread mark) Caliper, Mitutoyo Corporation) 18 days after transplantation. The mice were divided into groups so that the average value of the tumor volume of each group was almost equal (Day 1). The tumor volume was calculated according to the following equation: Tumor volume=longest diameter(mm)×short axis(mm)×short axis(mm)/2
Lenvatinib mesylate was dissolved in purified water to a concentration of 0.3 mg/mL. […]
as §1

SMILES: COc1cc2nccc(Oc3ccc(NC(=O)NC4CC4)c(Cl)c3)c2cc1C(N)=O [Lenvatinib, 4-(3-chloro-4-(cyclopropylaminocarbonyl)aminophenoxy)-7-methoxy-6-quinolinecarboxamide]
- Average tumor volume (Day 8) [1]: 267.9 mm^3
- Average tumor volume (Day 8) [2]: 438.6 mm^3
- Average tumor volume (Day 8) [3]: 352.2 mm^3
